Laboratory results from ChEMBL document CHEMBL4118276, “The mimics of Nε-acyl-lysine derived from cysteine as sirtuin inhibitors” (Bioorg Med Chem Lett, 2018).
Active and inactive are the calls of the source. The calls are words filed in the database; no cut-off is given here. Residues, ends and D or L forms follow the SMILES beside them. *: point of attachment. X6 = O=C(CCC*)NCc1ccc([N+](=O)[O-])cc1; X10 = O=C(O)CCCNC(=O)CCC*; X7 = O=C(CCC*)NCc1ccccc1; X4 = O=C(O)CCNC(=O)CCC*; X13 = CCCCCCNC(=O)CCC*; X8 = O=C(O)CNC(=O)CCC*; X12 = CCCCNC(=O)CCC*; X11 = CNC(=O)CCC*; X9 = CCNC(=O)CCC*; X5 = NC(=O)CCC*

What was measured:
[1] = target: T1, NAD-dependent protein deacetylase sirtuin-1 (Homo sapiens) (UniProt Q96EB6); assay: Inhibition of human SIRT1 expressed in Escherichia coli BL21 at 250 uM using H3K9AcWW as substrate preincubated for 15 mins followed by substrate addition measured after 1 hr by HPLC analysis relative to control
T1 sequence (whole entry): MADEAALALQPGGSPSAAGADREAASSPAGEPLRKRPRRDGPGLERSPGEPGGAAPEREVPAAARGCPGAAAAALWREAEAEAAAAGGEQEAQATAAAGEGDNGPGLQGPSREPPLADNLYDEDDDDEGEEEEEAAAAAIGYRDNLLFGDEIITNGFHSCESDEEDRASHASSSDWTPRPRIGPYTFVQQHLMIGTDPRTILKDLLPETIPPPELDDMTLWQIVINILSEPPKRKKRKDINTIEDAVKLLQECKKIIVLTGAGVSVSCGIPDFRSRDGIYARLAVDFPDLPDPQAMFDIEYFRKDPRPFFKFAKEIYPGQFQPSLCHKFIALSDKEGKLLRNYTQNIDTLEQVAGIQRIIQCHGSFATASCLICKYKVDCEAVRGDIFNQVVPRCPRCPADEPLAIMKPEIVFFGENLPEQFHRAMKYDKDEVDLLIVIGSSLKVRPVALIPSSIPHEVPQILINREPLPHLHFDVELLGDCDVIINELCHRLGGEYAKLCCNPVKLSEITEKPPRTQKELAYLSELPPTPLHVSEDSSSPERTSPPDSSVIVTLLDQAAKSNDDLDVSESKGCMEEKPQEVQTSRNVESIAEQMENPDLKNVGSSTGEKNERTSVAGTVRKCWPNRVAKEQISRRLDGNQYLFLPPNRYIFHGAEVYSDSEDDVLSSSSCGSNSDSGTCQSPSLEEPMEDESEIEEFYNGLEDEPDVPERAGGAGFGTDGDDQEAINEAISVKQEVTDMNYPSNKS

[2] = target: T2, NAD-dependent protein deacylase sirtuin-5, mitochondrial (Homo sapiens, UniProt Q9NXA8); assay: Inhibition of human SIRT5 expressed in Escherichia coli BL21 at 250 uM using H3K9AcWW as substrate preincubated for 15 mins followed by substrate addition measured after 1 hr by HPLC analysis relative to control
T2 sequence (Q9NXA8 37-310 limits assumed): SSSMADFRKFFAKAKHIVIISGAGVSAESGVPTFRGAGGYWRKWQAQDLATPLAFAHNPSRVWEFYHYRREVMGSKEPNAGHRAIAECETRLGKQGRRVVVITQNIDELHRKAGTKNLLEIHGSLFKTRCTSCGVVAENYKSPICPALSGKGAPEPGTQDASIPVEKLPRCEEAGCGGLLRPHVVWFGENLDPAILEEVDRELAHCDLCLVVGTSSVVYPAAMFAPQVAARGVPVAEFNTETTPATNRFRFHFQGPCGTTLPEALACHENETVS

[3] = target: T3, NAD-dependent protein deacylase sirtuin-6 (Homo sapiens, UniProt Q8N6T7); assay: Inhibition of human SIRT6 (1 to 294 residues) expressed in Escherichia coli Rosetta (DE3) at 250 uM using H3K9AcWW as substrate preincubated for 15 mins followed by substrate addition measured after 1 hr by HPLC analysis relative to control
T3 sequence (Q8N6T7 whole entry, the tested form may be a part): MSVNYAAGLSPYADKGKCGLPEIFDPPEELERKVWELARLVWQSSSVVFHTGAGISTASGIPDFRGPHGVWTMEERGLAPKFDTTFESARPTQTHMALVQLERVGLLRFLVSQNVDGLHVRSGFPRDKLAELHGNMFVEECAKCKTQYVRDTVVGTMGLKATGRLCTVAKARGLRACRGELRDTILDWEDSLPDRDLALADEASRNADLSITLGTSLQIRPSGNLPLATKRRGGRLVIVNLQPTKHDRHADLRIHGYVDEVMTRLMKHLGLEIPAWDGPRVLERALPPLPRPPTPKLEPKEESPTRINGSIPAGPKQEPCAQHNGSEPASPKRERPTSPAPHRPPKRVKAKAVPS

[4] = target: T4, NAD-dependent protein deacetylase sirtuin-2 (Homo sapiens) (UniProt Q8IXJ6); assay: Inhibition of human N-terminal His6-SUMO-tagged SIRT2 (38 to 356 residues) expressed in Escherichia coli BL21 at 250 uM using H3K9AcWW as substrate preincubated for 15 mins followed by substrate addition measured after 1 hr by HPLC analysis relative to control
T4 sequence (whole entry): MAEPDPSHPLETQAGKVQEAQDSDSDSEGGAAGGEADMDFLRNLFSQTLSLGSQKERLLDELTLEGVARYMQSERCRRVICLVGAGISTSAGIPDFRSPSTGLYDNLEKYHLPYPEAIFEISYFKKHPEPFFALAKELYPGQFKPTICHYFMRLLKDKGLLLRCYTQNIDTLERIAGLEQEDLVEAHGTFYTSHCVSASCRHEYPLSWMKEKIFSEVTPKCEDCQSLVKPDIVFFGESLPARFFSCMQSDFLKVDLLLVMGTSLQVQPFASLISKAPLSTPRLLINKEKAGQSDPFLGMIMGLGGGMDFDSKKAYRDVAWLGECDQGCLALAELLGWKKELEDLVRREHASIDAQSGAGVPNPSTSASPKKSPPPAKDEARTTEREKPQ

[5] = target: T1, NAD-dependent protein deacetylase sirtuin-1 (Homo sapiens); assay: Inhibition of human SIRT1 expressed in Escherichia coli BL21 at 333 uM using H3K9AcWW as substrate preincubated for 15 mins followed by substrate addition measured after 1 hr by HPLC analysis relative to control
[6] = target: T4, NAD-dependent protein deacetylase sirtuin-2 (Homo sapiens); assay: Inhibition of human N-terminal His6-SUMO-tagged SIRT2 (38 to 356 residues) expressed in Escherichia coli BL21 at 333 uM using H3K9AcWW as substrate preincubated for 15 mins followed by substrate addition measured after 1 hr by HPLC analysis relative to control
[7] = target: T5, NAD-dependent protein deacetylase sirtuin-3, mitochondrial (Homo sapiens) (UniProt Q9NTG7); assay: Inhibition of human SIRT3 expressed in Escherichia coli BL21 at 333 uM using H3K9AcWW as substrate preincubated for 15 mins followed by substrate addition measured after 1 hr by HPLC analysis relative to control
T5 sequence (whole entry): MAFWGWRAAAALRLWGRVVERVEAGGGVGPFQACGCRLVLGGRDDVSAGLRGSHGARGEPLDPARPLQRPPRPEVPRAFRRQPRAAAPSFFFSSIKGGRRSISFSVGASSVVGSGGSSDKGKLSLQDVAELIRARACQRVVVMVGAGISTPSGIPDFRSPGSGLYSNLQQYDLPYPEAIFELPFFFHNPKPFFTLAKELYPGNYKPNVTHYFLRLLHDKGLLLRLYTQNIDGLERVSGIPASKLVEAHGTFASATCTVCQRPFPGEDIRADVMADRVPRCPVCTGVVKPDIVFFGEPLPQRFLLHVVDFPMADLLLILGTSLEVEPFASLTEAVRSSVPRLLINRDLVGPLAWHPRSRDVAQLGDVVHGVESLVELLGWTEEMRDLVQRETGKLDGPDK

[8] = target: T2, NAD-dependent protein deacylase sirtuin-5, mitochondrial; assay: Inhibition of human SIRT5 expressed in Escherichia coli BL21 at 333 uM using H3K9AcWW as substrate preincubated for 15 mins followed by substrate addition measured after 1 hr by HPLC analysis relative to control
[9] = target: T3, NAD-dependent protein deacylase sirtuin-6; assay: Inhibition of human SIRT6 (1 to 294 residues) expressed in Escherichia coli Rosetta (DE3) at 333 uM using H3K9AcWW as substrate preincubated for 15 mins followed by substrate addition measured after 1 hr by HPLC analysis relative to control

SMILES	inhibition [1]	inhibition [2]	inhibition [3]	inhibition [4]	inhibition [5]	inhibition [6]	inhibition [7]	inhibition [8]	inhibition [9]
C[C@H](NC(=O)[C@@H](NC(=O)[C@H](CCC(N)=O)NC(=O)[C@@H](N)CCCCN)[C@@H](C)O)C(=O)N[C@@H](CCCNC(=N)N)C(=O)N[C@@H](CSCCCC(=O)NCCC(=O)O)C(=O)N[C@@H](CO)C(=O)N[C@H](C(=O)NCC(=O)NCC(=O)N[C@@H](CCCCN)C(=O)O)[C@@H](C)O (H-KQTARC(X4)STGGK-OH)	66%	15%	54%	45%	–	–	–	–	–
CCCCNC(=O)CCCSC[C@H](NC(=O)OCc1ccccc1)C(=O)Nc1ccccc1	–	–	–	–	inactive	25%	inactive	inactive	26%
CNC(=O)CCCSC[C@H](NC(=O)[C@H](CCCNC(=N)N)NC(=O)[C@H](C)NC(=O)[C@@H](NC(=O)[C@H](CCC(N)=O)NC(=O)[C@@H](N)CCCCN)[C@@H](C)O)C(=O)N[C@@H](CO)C(=O)N[C@H](C(=O)NCC(=O)NCC(=O)N[C@@H](CCCCN)C(=O)O)[C@@H](C)O (H-KQTARC(X11)STGGK-OH)	34%	10%	inactive	inactive	–	–	–	–	–
C[C@H](NC(=O)[C@@H](NC(=O)[C@H](CCC(N)=O)NC(=O)[C@@H](N)CCCCN)[C@@H](C)O)C(=O)N[C@@H](CCCNC(=N)N)C(=O)N[C@@H](CSCCCC(N)=O)C(=O)N[C@@H](CO)C(=O)N[C@H](C(=O)NCC(=O)NCC(=O)N[C@@H](CCCCN)C(=O)O)[C@@H](C)O (H-KQTARC(X5)STGGK-OH)	40%	18%	inactive	27%	–	–	–	–	–
CCCCCCCCCCCCCNC(=O)CCCSC[C@H](NC(=O)OCc1ccccc1)C(=O)Nc1ccccc1	–	–	–	–	inactive	20%	inactive	inactive	31%
O=C(O)CCNC(=O)CCCSC[C@H](NC(=O)OCc1ccccc1)C(=O)Nc1ccccc1	–	–	–	–	inactive	inactive	inactive	inactive	43%
C[C@H](NC(=O)[C@@H](NC(=O)[C@H](CCC(N)=O)NC(=O)[C@@H](N)CCCCN)[C@@H](C)O)C(=O)N[C@@H](CCCNC(=N)N)C(=O)N[C@@H](CSCCCC(=O)NCc1ccc([N+](=O)[O-])cc1)C(=O)N[C@@H](CO)C(=O)N[C@H](C(=O)NCC(=O)NCC(=O)N[C@@H](CCCCN)C(=O)O)[C@@H](C)O (H-KQTARC(X6)STGGK-OH)	38%	inactive	26%	26%	–	–	–	–	–
CCCCCCCCNC(=O)CCCSC[C@H](NC(=O)OCc1ccccc1)C(=O)Nc1ccccc1	–	–	–	–	inactive	60%	inactive	14%	inactive
O=C(CCCSC[C@H](NC(=O)OCc1ccccc1)C(=O)Nc1ccccc1)NCc1ccc([N+](=O)[O-])cc1	–	–	–	–	inactive	inactive	15%	inactive	inactive
NC(=O)c1cccnc1	73%	69%	76%	83%	–	–	–	–	–
O=C(CCCSC[C@H](NC(=O)OCc1ccccc1)C(=O)Nc1ccccc1)NCc1ccccc1	–	–	–	–	inactive	47%	11%	34%	30%
C[C@H](NC(=O)[C@@H](NC(=O)[C@H](CCC(N)=O)NC(=O)[C@@H](N)CCCCN)[C@@H](C)O)C(=O)N[C@@H](CCCNC(=N)N)C(=O)N[C@@H](CSCCCC(=O)NCCCC(=O)O)C(=O)N[C@@H](CO)C(=O)N[C@H](C(=O)NCC(=O)NCC(=O)N[C@@H](CCCCN)C(=O)O)[C@@H](C)O (H-KQTARC(X10)STGGK-OH)	23%	16%	43%	33%	–	–	–	–	–
CCNC(=O)CCCSC[C@H](NC(=O)[C@H](CCCNC(=N)N)NC(=O)[C@H](C)NC(=O)[C@@H](NC(=O)[C@H](CCC(N)=O)NC(=O)[C@@H](N)CCCCN)[C@@H](C)O)C(=O)N[C@@H](CO)C(=O)N[C@H](C(=O)NCC(=O)NCC(=O)N[C@@H](CCCCN)C(=O)O)[C@@H](C)O (H-KQTARC(X9)STGGK-OH)	35%	inactive	inactive	13%	–	–	–	–	–
CCCCCCNC(=O)CCCSC[C@H](NC(=O)[C@H](CCCNC(=N)N)NC(=O)[C@H](C)NC(=O)[C@@H](NC(=O)[C@H](CCC(N)=O)NC(=O)[C@@H](N)CCCCN)[C@@H](C)O)C(=O)N[C@@H](CO)C(=O)N[C@H](C(=O)NCC(=O)NCC(=O)N[C@@H](CCCCN)C(=O)O)[C@@H](C)O (H-KQTARC(X13)STGGK-OH)	36%	inactive	inactive	20%	–	–	–	–	–
CCCCNC(=O)CCCSC[C@H](NC(=O)[C@H](CCCNC(=N)N)NC(=O)[C@H](C)NC(=O)[C@@H](NC(=O)[C@H](CCC(N)=O)NC(=O)[C@@H](N)CCCCN)[C@@H](C)O)C(=O)N[C@@H](CO)C(=O)N[C@H](C(=O)NCC(=O)NCC(=O)N[C@@H](CCCCN)C(=O)O)[C@@H](C)O (H-KQTARC(X12)STGGK-OH)	30%	inactive	inactive	12%	–	–	–	–	–
C[C@H](NC(=O)[C@@H](NC(=O)[C@H](CCC(N)=O)NC(=O)[C@@H](N)CCCCN)[C@@H](C)O)C(=O)N[C@@H](CCCNC(=N)N)C(=O)N[C@@H](CSCCCC(=O)NCc1ccccc1)C(=O)N[C@@H](CO)C(=O)N[C@H](C(=O)NCC(=O)NCC(=O)N[C@@H](CCCCN)C(=O)O)[C@@H](C)O (H-KQTARC(X7)STGGK-OH)	30%	inactive	28%	inactive	–	–	–	–	–
C[C@H](NC(=O)[C@@H](NC(=O)[C@H](CCC(N)=O)NC(=O)[C@@H](N)CCCCN)[C@@H](C)O)C(=O)N[C@@H](CCCNC(=N)N)C(=O)N[C@@H](CSCCCC(=O)NCC(=O)O)C(=O)N[C@@H](CO)C(=O)N[C@H](C(=O)NCC(=O)NCC(=O)N[C@@H](CCCCN)C(=O)O)[C@@H](C)O (H-KQTARC(X8)STGGK-OH)	60%	20%	25%	28%	–	–	–	–	–
